Measured values as given in patent US12617757B2, “Compounds and modules for inhibition of pre-miR-21 and their use in treatment of certain cancers” (University of Florida Research Foundation, Incorporated, priority 2019, dated 2026).

Experiments:
pre-miR-21 = experiment: Cellular Chem-CLIP / C-Chem-CLIP in MDA-MB-231 cells; assay type: cell-based, human
Method: Cellular Chem-CLIP/C-Chem-CLIP. The MDA-MB-231 cells were grown to ˜70% confluency as monolayers in 60 mm dishes. The cells were treated with Chem-CLIP compounds (8 or 9) and/or non-cross-linking competitors (1 or 2) for 48 h. Total RNA was extracted using a Quick-RNA MiniPrep Kit (Zymo Research) per the manufacturer's protocol. Approximately 20-30 μg of total RNA was then incubated with 100 μL of streptavidin-agarose beads (Sigma-Aldrich) and shaken for 1 h at room temperature. The solution was removed beads washed six times with 1×PBS. The RNA bound to beads was released, purified, and used for RT-qPCR as previously described^23. Relative fold enrichment of the measured RNA before and after pulldown was measured using equation 3 (Eq. 3): Relative Fold Enrichment=2^−(ΔC^t^before pulldown−ΔC^t^after pulldown) (Eq. 3)
where “ΔCt before pulldown” is the difference between the Ct values for the RNA of interest and a housekeeping gene in total RNA from cells and “ΔCt after pulldown” is the difference between the Ct values for the RNA of interest and the same housekeeping gene in RNA after pulldown.

RNase L = target: T1, RNase L (Homo sapiens, UniProt Q05823); experiment: In vitro RNase L oligomerization; assay type: biochemical; parameters: GST; made in house
T1 sequence (Q05823 1-741): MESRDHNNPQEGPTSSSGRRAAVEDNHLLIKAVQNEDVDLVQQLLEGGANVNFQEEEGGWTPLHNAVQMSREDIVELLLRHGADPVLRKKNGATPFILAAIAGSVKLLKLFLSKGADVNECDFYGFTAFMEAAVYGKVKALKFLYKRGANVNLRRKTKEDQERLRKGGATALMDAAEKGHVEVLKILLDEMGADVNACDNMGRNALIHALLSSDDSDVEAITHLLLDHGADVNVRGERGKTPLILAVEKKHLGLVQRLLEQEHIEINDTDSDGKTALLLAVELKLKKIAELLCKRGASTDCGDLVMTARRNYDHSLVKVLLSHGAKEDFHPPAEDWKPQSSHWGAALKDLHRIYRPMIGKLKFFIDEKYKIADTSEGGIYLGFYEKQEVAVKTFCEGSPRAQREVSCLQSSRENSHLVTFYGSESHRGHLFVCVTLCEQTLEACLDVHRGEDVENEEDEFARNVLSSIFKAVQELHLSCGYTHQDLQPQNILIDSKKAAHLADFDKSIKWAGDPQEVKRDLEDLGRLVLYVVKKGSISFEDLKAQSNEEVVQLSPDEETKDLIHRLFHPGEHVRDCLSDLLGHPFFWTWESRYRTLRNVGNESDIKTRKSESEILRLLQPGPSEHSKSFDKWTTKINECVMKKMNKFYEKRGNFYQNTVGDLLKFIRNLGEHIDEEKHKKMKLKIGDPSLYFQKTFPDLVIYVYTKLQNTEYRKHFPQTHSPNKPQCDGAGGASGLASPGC
Method: In Vitro RNase L Oligomerization. An aliquot of RNase L (3 μM) in 1×RNase L Buffer was supplemented with 10 mM MgCl2, fresh 7 mM β-mercaptoethanol, and 50 μM of ATP. RNase L oligomerization was performed as previously described^13 using dilutions of 2′-5′ A4 or compounds (2 or 5) prepared in 1×RNase L Buffer. A Western blot (described below) was run to resolve monomeric and oligomeric RNase L populations using RNase L primary antibody (1:5000 dilution; Cell Signaling Technology: D4B4J) overnight at 4° C. in 1×TBST containing 5% nonfat dry milk and 1:10000 anti-rabbit IgG horseradish peroxidase secondary antibody conjugate (Cell Signaling Technology: 7074S) in 1×TBST containing 5% nonfat dry milk for 2 h at room temperature.

With `CCCN(CC(=O)N(CCC)CC(=O)N(CCC)CC(=O)N(CC(N)=O)Cc1cn(CCCNC(=O)CCCOc2ccc(-c3nc4cc(-c5ccc(N6CCN(C)CC6)cc5)ccc4[nH]3)cc2)nn1)C(=O)CNCc1cn(CCCNC(=O)CCCOc2ccc(-c3nc4cc(-c5ccc(N6CCN(C)CC6)cc5)ccc4[nH]3)cc2)nn1` [Compound 2] the “potency in occupying pre-miR-21 in cells versus Formula 1 (C-Chem-CLIP)” value (pre-miR-21; MDA-MB-231) was 20 fold and the “competition of Chem-CLIP enrichment (C-Chem-CLIP)” value (pre-miR-21; MDA-MB-231, versus probe 8) was “enrichment is depleted”.
`CCCN(CC(=O)N(CCC)CC(=O)N(CCC)CC(=O)N(CC(=O)NCCOCCOCCOCCOc1ccc(C=C2SC(Nc3ccccc3)=C(C(=O)OCC)C2=O)cc1O)Cc1cn(CCCNC(=O)CCCOc2ccc(-c3nc4cc(-c5ccc(N6CCN(C)CC6)cc5)ccc4[nH]3)cc2)nn1)C(=O)CN(Cc1cn(CCCNC(=O)CCCOc2ccc(-c3nc4cc(-c5ccc(N6CCN(C)CC6)cc5)ccc4[nH]3)cc2)nn1)C(C)=O` [Compound 5] was tested, and the “oligomerization of RNase L” value (RNase L) was “oligomerization of RNase L”.
